According to patent US20230031406A1, “COMPOUNDS AND COMPOSITIONS FOR TREATING CONDITIONS ASSOCIATED WITH NLRP ACTIVITY” (Novartis AG, priority 2018, published 2023):

The compounds below were run on PMA-differentiated THP-1 cells (assay: IL-1β production in PMA-differentiated THP-1 cells stimulated with gramicidin (hTHP-1 assay containing 2% fetal bovine serum; Procedures 1 and 2)). Conditions: Table B1; 2% fetal bovine serum; class symbols; read-out: Average IC50 of compounds in hTHP-1 assay: hTHP-1 IC50.
Type: cell-based, human
Protocol: The following protocol is suitable for testing the activity of the compounds disclosed herein. Procedure 1: IL-1β Production in PMA-Differentiated THP-1 Cells Stimulated with Gramicidin.
THP-1 cells were purchased from the American Type Culture Collection and sub-cultured according to instructions from the supplier. Cells were cultured in complete RPMI 1640 (containing 10% heat inactivated FBS, penicillin (100 units/ml) and streptomycin (100 μg/ml)), and maintained in log phase prior to experimental setup. Prior to the experiment, compounds were dissolved in dimethyl sulfoxide (DMSO) to generate a 30 mM stock. The compound stock was first pre-diluted in DMSO to 3, 0.34, 0.042 and 0.0083 mM intermediate concentrations and subsequently spotted using Echo550 liquid handler into an empty 384-well assay plate to achieve desired final concentration (e.g. 100, 33, 11, 3.7, 1.2, 0.41, 0.14, 0.046, 0.015, 0.0051, 0.0017 μM). DMSO was backfilled in the plate to achieve a final DMSO assay concentration of 0.37%. The plate was then sealed and stored at room temperature until required.
THP-1 cells were treated with PMA (Phorbol 12-myristate 13-acetate) (20 ng/ml) for 16-18 hours. On the day of the experiment the media was removed and adherent cells were detached with trypsin for 5 minutes. Cells were then harvested, washed with complete RPMI 1640, spun down, and resuspended in RPMI 1640 (containing 2% heat inactivated FBS, penicillin (100 units/ml) and streptomycin (100 μg/ml). The cells were plated in the 384-well assay plate containing the spotted compounds at a density of 50,000 cells/well (final assay volume 50 μl). Cells were incubated with compounds for 1 hour and then stimulated with gramicidin (5 μM) (Enzo) for 2 hours. Plates were then centrifuged at 340 g for 5 min. Cell free supernatant (40 μL) was collected using a 96—CHannel PlateMaster (Gilson) and the production of IL-1β was evaluated by HTRF (cisbio). The plates were incubated for 18 h at 4° C. and read using the preset HTRF program (donor emission at 620 nm, acceptor emission at 668 nm) of the SpectraMax i3x spectrophotometer (Molecular Devices, software SoftMax 6). A vehicle only control and a dose titration of CRID3 (100-0.0017 μM) were run concurrently with each experiment.
Procedure 2: IL-1β Production in PMA-Differentiated THP-1 Cells Stimulated with Gramicidin.
THP-1 cells were purchased from the American Type Culture Collection and sub-cultured according to instructions from the supplier. Prior to experiments, cells were cultured in complete RPMI 1640 (containing 10% heat inactivated FBS, penicillin (100 units/ml) and streptomycin (100 μg/ml)), and maintained in log phase prior to experimental setup. Prior to the experiment THP-1 were treated with PMA (Phorbol 12-myristate 13-acetate) (20 ng/ml) for 16-18 hours. Compounds were dissolved in dimethyl sulfoxide (DMSO) to generate a 30mM stock. On the day of the experiment the media was removed and adherent cells were detached with trypsin for 5 minutes. Cells were then harvested, washed with complete RPMI 1640, spun down, resuspended in RPMI 1640 (containing 2% heat inactivated FBS, penicillin (100 units/ml) and streptomycin (100 μg/ml). The cells were plated in a 384-well plate at a density of 50,000 cells/well (final assay volume […]). Compounds were first dissolved in assay medium to obtain a 5× top concentration of 500 μM. 10 step dilutions (1:3) were then undertaken in assay medium containing 1.67% DMSO. 5× compound solutions were added to the culture medium to achieve desired final concentration (e.g. 100, 33, 11, 3.7, 1.2, 0.41, 0.14, 0.046, 0.015, 0.0051, 0.0017 μM). Final DMSO concentration was at 0.37%. Cells were incubated with compounds for 1 hour and then stimulated with gramicidin (5 μM) (Enzo) for 2 hours. Plates were then centrifuged at 340 g for 5 min. Cell free supernatant (40 μL) was collected using a 96—CHannel PlateMaster (Gilson) and the production of IL-1β was evaluated by HTRF (cisbio). […]
In the case of `CC(C)(O)c1cc(F)c(S(N)(=O)=NC(=O)Nc2c3c(nc4c2CCC42CC2)CCC3)s1` (single isomer, unassigned) [Compound 101a, (S) or (R)-3-fluoro-5-(2-hydroxypropan-2-yl)-N′-((1′,5′,6′,7′-tetrahydro-2′H-spiro[cyclopropane-1,3′-dicyclopenta[b,e]pyridin]-8′-yl)carbamoyl)thiophene-2-sulfonimidamide], the IC50 is reported as 1 to 5 µM.
In the case of `CC(C)(O)c1cc(F)c(S(N)(=O)=NC(=O)Nc2c3c(nc4c2CCC42CC2)CCC3)s1` (single isomer, unassigned) [Compound 101b, (R) or (S)-3-fluoro-5-(2-hydroxypropan-2-yl)-N′-((1′,5′,6′,7′-tetrahydro-2′H-spiro[cyclopropane-1,3′-dicyclopenta[b,e]pyridin]-8′-yl)carbamoyl)thiophene-2-sulfonimidamide], the IC50 is reported as 0.008 to 0.04 µM.
Compound `CC(C)(O)c1cc(F)c(S(N)(=O)=NC(=O)Nc2c3c(nc4c2CCC4(C)C)CCC3)s1` (single isomer, unassigned) [Compound 102a, (S) or (R)-N′-((3,3-dimethyl-1,2,3,5,6,7-hexahydro-dicyclopenta[b,e]pyridin-8-yl)carbamoyl)-3-fluoro-5-(2-hydroxy-propan-2-yl)thiophene-2-sulfonimidamide] has an IC50 of 1 to 5 µM.
`CC(C)(O)c1cc(F)c(S(N)(=O)=NC(=O)Nc2c3c(nc4c2CCC4(C)C)CCC3)s1` (single isomer, unassigned) [Compound 102b, (R) or (S)-N′-((3,3-dimethyl-1,2,3,5,6,7-hexahydro-dicyclopenta[b,e]pyridin-8-yl)carbamoyl)-3-fluoro-5-(2-hydroxy-propan-2-yl)thiophene-2-sulfonimidamide] gave an IC50 of 0.008 to 0.04 µM.
Work on `CC1CCc2c1nc1c(c2NC(=O)N=S(N)(=O)c2sc(C(C)(C)O)cc2F)CCC1` (single isomer, unassigned) [Compound 103aa, (S,R) or (S,S)-3-fluoro-5-(2-hydroxypropan-2-yl)-N′-((3-methyl-1,2,3,5,6,7-hexahydrodicyclo-penta[b,e]pyridin-8-yl)carbamoyl)thiophene-2-sulfonimidamide] yielded an IC50 of 1 to 5 µM.
In the case of `CC1CCc2c1nc1c(c2NC(=O)N=S(N)(=O)c2sc(C(C)(C)O)cc2F)CCC1` (single isomer, unassigned) [Compound 103ab, (S,S) or (S,R)-3-fluoro-5-(2-hydroxypropan-2-yl)-N′-((3-methyl-1,2,3,5,6,7-hexahydrodicyclo-penta[b,e]pyridin-8-yl)carbamoyl)thiophene-2-sulfonimidamide], the IC50 is reported as 5 to 30 µM.
`CC1CCc2c1nc1c(c2NC(=O)N=S(N)(=O)c2sc(C(C)(C)O)cc2F)CCC1` (single isomer, unassigned) [Compound 103ba, (R,R) or (R,S)-3-fluoro-5-(2-hydroxypropan-2-yl)-N′-((3-methyl-1,2,3,5,6,7-hexahydrodicyclo-penta[b,e]pyridin-8-yl)carbamoyl)thiophene-2-sulfonimidamide] showed an IC50 of 0.008 to 0.04 µM.
Work on `CC1CCc2c1nc1c(c2NC(=O)N=S(N)(=O)c2sc(C(C)(C)O)cc2F)CCC1` (single isomer, unassigned) [Compound 103bb, (R,S) or (R,R)-3-fluoro-5-(2-hydroxypropan-2-yl)-N′-((3-methyl-1,2,3,5,6,7-hexahydrodicyclo-penta[b,e]pyridin-8-yl)carbamoyl)thiophene-2-sulfonimidamide] yielded an IC50 of 0.2 to 1 µM.
`Cc1sc(S(N)(=O)=NC(=O)Nc2c3c(nc4c2CCC4C)CCC3)nc1C(C)(C)O` (single isomer, unassigned) [Compound 104a, (R,R/S) or (S,R/S)-4-(2-hydroxypropan-2-yl)-5-methyl-N′-((3-methyl-1,2,3,5,6,7-hexahydrodicyclo-penta[b,e]pyridin-8-yl)carba-moyl)thiazole-2-sulfonimidamide] gave an IC50 of 0.2 to 1 µM.
Compound `Cc1sc(S(N)(=O)=NC(=O)Nc2c3c(nc4c2CCC4C)CCC3)nc1C(C)(C)O` (single isomer, unassigned) [Compound 104b, (S,R/S) or (R,R/S)-4-(2-hydroxypropan-2-yl)-5-methyl-N′-((3-methyl-1,2,3,5,6,7-hexahydrodicyclo-penta[b,e]pyridin-8-yl)carbamoyl)thiazole-2-sulfonimidamide] has an IC50 of 5 to 30 µM.
`CC(C)(O)c1cc(F)c(S(N)(=O)=NC(=O)Nc2c3c(nc4c2CCC4)CCC3)s1` (single isomer, unassigned) [Compound 105a, (R) or (S)-3-fluoro-N′-((1,2,3,5,6,7-hexahydro-dicyclopenta[b,e]pyridin-8-yl)carbamoyl)-5-(2-hydroxypropan-2-yl)thio-phene-2-sulfonimidamide] showed an IC50 of 0.04 to 0.2 µM.
Compound `CC(C)(O)c1cc(F)c(S(N)(=O)=NC(=O)Nc2c3c(nc4c2CCC4)CCC3)s1` (single isomer, unassigned) [Compound 105b, (S) or (R)-3-fluoro-N′-((1,2,3,5,6,7-hexahydro-dicyclopenta[b,e]pyridin-8-yl)carbamoyl)-5-(2-hydroxypropan-2-yl)thio-phene-2-sulfonimidamide] has an IC50 of 1 to 5 µM.
`CC(C)c1ncc(F)c(C(C)C)c1NC(=O)N=S(N)(=O)c1sc(C(C)(C)O)cc1F` (single isomer, unassigned) [Compound 106a, (R) or (S)-3-fluoro-N′-((5-fluoro-2,4-diisopropylpyridin-3-yl)carbamoyl)-5-(2-hydroxypropan-2-yl)thiophene-2-sulfonimidamide] gave an IC50 of 0.04 to 0.2 µM.
Work on `CC(C)c1ncc(F)c(C(C)C)c1NC(=O)N=S(N)(=O)c1sc(C(C)(C)O)cc1F` (single isomer, unassigned) [Compound 106b, (S) or (R)-3-fluoro-N′-((5-fluoro-2,4-diisopropylpyridin-3-yl)carbamoyl)-5-(2-hy-droxypropan-2-yl)thiophene-2-sulfonimidamide] yielded an IC50 of 1 to 5 µM.
Work on `Cc1sc(S(N)(=O)=NC(=O)Nc2c3c(nc4c2CCC4)CCC3)cc1C(C)(C)O` (single isomer, unassigned) [Compound 107a, (R) or (S)-N′-((1,2,3,5,6,7-hexahydrodicyclo-penta[b,e]pyridin-8-yl)carbamoyl)-4-(2-hydroxypropan-2-yl)-5-methylthiophene-2-sulfonimidamide] yielded an IC50 of 0.2 to 1 µM.
`Cc1sc(S(N)(=O)=NC(=O)Nc2c3c(nc4c2CCC4)CCC3)cc1C(C)(C)O` (single isomer, unassigned) [Compound 107b, (S) or (R)-N′-((1,2,3,5,6,7-hexahydrodicyclo-penta[b,e]pyridin-8-yl)carbamoyl)-4-(2-hydroxypropan-2-yl)-5-methylthiophene-2-sulfonimidamide] showed an IC50 of 5 to 30 µM.
In the case of `CC(C)(O)c1csc(S(N)(=O)=NC(=O)Nc2c3c(nc4c2CCC42CC2)CCC3)c1` (single isomer, unassigned) [Compound 114a, (R) or (S)-4-(2-hydroxy-propan-2-yl)-N′-((1′,5′,6′,7′-tetrahydro-2′H-spiro[cyclopropane-1,3′-dicyclopenta[b,e]pyridin]-8′-yl)carbamoyl)thiophene-2-sulfonimidamide], the IC50 is reported as 0.04 to 0.2 µM.
`CC(C)(O)c1csc(S(N)(=O)=NC(=O)Nc2c3c(nc4c2CCC42CC2)CCC3)c1` (single isomer, unassigned) [Compound 114b, (S) or (R)-4-(2-hydroxy-propan-2-yl)-N′-((1′,5′,6′,7′-tetrahydro-2′H-spiro[cyclopropane-1,3′-dicyclopenta[b,e]pyridin]-8′-yl)carbamoyl)thiophene-2-sulfonimidamide] showed an IC50 of 1 to 5 µM.
